Results on ten compounds are retold here after ChEMBL document CHEMBL5518171, “Curcumin hybrid molecules for the treatment of Alzheimer's disease: Structure and pharmacological activities” (Eur J Med Chem, 2024).

The nature of assay [1]: Neuroprotective activity against human MC65 cells assessed as increase in cell viability incubated for 72 hrs in absence of tetracycline by MTT assay. In kind it is functional, cell-based. Particulars: MC65, 72 h.
Assay [2] addresses T1, Amine oxidase [flavin-containing] A (Homo sapiens, UniProt P21397).
T1 sequence (P21397 whole entry): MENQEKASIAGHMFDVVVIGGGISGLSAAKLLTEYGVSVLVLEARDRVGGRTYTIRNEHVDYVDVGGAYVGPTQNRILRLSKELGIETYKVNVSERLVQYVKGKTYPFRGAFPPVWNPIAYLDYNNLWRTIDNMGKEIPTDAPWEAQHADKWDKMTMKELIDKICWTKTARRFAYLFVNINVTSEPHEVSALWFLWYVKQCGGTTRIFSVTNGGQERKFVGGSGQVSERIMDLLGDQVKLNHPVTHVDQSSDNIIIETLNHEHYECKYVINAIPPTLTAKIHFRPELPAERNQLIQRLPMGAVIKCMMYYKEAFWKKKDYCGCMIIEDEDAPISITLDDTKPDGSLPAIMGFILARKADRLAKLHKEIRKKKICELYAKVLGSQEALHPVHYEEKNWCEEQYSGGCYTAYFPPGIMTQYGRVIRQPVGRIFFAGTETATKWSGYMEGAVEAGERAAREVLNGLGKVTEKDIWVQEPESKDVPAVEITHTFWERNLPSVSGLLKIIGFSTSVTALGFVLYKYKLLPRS
Put plainly: Inhibition of human MAO-A using p-tyramine as substrate at 100 uM incubated for 15 mins by Amplex red and horseradish peroxidase based fluorescence assay relative to control. Particulars: 0.25 h.

Assay [3] deals with Cholinesterase (Equus caballus) (UniProt P81908). The assay is described as follows: Inhibition of equine BChE at 100 uM by Ellman's method relative to control. On the technique in general: DTNB colorimetry detects thiols as they appear.
Sequence of Cholinesterase (Equus caballus) (P81908 whole entry): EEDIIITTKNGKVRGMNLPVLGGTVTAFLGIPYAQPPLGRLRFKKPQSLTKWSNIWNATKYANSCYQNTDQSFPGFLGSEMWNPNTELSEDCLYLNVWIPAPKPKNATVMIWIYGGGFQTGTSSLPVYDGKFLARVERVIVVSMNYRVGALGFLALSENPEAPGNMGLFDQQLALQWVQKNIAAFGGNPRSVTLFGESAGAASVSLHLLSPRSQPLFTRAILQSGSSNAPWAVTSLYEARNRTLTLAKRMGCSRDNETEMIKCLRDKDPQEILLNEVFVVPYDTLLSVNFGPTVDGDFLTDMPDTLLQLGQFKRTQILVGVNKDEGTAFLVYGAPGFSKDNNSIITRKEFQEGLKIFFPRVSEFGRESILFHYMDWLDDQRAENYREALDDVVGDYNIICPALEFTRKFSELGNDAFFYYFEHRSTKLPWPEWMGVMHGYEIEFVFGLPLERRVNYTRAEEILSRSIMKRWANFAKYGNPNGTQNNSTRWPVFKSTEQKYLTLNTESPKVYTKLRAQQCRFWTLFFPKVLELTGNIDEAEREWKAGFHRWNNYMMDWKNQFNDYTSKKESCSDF
The target of assay [4] is T2, Amine oxidase [flavin-containing] B (Homo sapiens, UniProt P27338).
T2 sequence (P27338 whole entry): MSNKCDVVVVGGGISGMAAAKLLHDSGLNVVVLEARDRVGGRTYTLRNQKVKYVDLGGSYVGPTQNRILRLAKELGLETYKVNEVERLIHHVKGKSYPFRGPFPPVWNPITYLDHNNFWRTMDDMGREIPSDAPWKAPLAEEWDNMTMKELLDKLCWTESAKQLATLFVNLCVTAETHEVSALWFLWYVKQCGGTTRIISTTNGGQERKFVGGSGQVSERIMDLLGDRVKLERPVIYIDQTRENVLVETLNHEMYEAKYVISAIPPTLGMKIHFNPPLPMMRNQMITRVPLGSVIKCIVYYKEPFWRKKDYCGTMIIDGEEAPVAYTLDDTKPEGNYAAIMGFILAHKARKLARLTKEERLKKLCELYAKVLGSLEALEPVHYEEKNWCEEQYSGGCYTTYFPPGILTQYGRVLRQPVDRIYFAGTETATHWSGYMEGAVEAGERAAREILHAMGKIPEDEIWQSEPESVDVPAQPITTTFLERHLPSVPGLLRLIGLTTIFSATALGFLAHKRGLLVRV
Put plainly: Inhibition of human MAO-B using p-tyramine as substrate at 100 uM incubated for 15 mins by Amplex red and horseradish peroxidase based fluorescence assay. Particulars: 0.25 h.

The nature of assay [5]: Antioxidant activity assessed as DPPH radical scavenging activity at 80 uM incubated for 1 hr by DPPH assay relative to control. In kind it is functional. (In general: The DPPH test is a chemical assay of radical scavenging.)
Assay [6] can be described thus: Antioxidant activity assessed as DPPH radical scavenging activity st 80 uM incubated for 1 hr by DPPH assay. In kind it is functional.
The subject of a further assay is SH-SY5Y. Put plainly: Antioxidant activity in human SH-SY5Y cells assessed as increase in intracellular GSH level at 10 uM incubated for 24 hrs by […] staining based fluorescence analysis. Type of assay: functional.
The next assay concerns N2a. Put plainly: Antiproliferative activity against mouse Neuro2a cells assessed as reduction in cell viability incubated for 72 hrs by MTT assay. In kind it is functional, cell-based. Background: Tetrazolium assays rely on reduction of a dye to a coloured formazan, in cell work by metabolically active cells.
Assay [7] can be described thus: Antioxidant activity assessed as DPPH radical scavenging activity measured after 30 mins by UV-visible spectrophotometric analysis. In kind it is functional.
A short description of assay [8]: Antioxidant activity assessed as ROS scavenging activity. Type of assay: functional.
The nature of assay [9]: Antioxidant activity assessed as DPPH radical scavenging activity by spectrophotometric analysis. In kind it is functional.
For another assay, the target named is Acetylcholinesterase (Electrophorus electricus, UniProt O42275).
Sequence of Acetylcholinesterase (O42275 whole entry): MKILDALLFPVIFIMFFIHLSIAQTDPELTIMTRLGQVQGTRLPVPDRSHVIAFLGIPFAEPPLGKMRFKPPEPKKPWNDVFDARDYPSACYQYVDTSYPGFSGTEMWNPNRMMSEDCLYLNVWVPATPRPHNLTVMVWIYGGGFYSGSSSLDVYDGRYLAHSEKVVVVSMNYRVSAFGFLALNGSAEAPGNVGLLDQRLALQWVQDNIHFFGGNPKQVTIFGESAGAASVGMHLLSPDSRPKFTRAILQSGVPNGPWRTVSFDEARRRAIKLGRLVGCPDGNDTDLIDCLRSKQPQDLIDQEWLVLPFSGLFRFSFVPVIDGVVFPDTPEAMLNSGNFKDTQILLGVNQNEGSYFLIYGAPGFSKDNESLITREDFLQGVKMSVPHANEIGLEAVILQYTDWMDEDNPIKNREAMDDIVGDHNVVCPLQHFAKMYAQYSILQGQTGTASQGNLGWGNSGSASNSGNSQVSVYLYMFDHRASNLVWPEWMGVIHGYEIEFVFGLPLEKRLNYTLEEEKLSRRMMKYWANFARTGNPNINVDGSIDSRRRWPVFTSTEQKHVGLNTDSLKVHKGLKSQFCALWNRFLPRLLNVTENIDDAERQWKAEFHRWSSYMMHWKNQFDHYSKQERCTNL
The target of a further assay is Cholinesterase (Equus caballus, UniProt P81908). Put plainly: Inhibition of equine BChE using BTCh as substrate incubated for 5 mins by Ellmans method.
Sequence of Cholinesterase (P81908 whole entry): as the sequence (P81908 whole entry) above

Description for Acetylcholinesterase: Inhibition of Electric eel AChE using acetylthiocholine iodide as substrate incubated for 15 mins by Ellman's method

By EC50 is commonly meant the concentration at which the effect is half-maximal. As for `COc1ccc2[nH]cc(CCNC(=O)CC(=O)/C=C/c3ccc(O)cc3)c2c1`, the EC50 in assay [1] was found to be 23.1 nM. Usually inhibition stands for the percentage by which the read-out fell short of the control. For the compound `O=C(/C=C/c1cc(O)c(O)cc1O)CC(=O)/C=C/c1cc2ccc(O)c(O)c2oc1=O`, the inhibition at 100 µM in assay [2] is 60.9%; in assay [4], 45.8%. The inhibition in [3] came to 43.3%. In the case of `O=C(/C=C/c1ccc(O)c(O)c1)NN=C1CCN(Cc2ccccc2)CC1`, the Activity in assay [5] worked out at 45%; in assay [6], 45%; with SH-SY5Y, 33%.

For orientation: IC50 means the concentration needed to halve the response being measured. With `COc1ccc(/C=C/C(=O)CCCCN2CC[C@@]34C=C[C@H](O)C[C@@H]3Oc3c(OC)ccc(c34)C2)cc1`, the IC50 with N2a worked out at 50000 nM. On to `CCCCN1C(=O)/C(=C(O)/C=C/c2cc(OC)c(OC)c(OC)c2)C(C(=O)OC)=C1C`, for which the Activity in [7] stood at 10.8%. As to `COc1ccc2[nH]cc(CCNC(=O)CC(=O)/C=C/c3ccc(O)c(OC)c3)c2c1`, in assay [1], the EC50 was determined as 134 nM. Consider `CCCCN1C(=O)/C(=C(O)/C=C/c2cc(OC)c(OC)c(OC)c2)C(C(=O)OCC)=C1C`, for which the Activity in assay [8] worked out at 61%. Take `CCCCN1C(=O)/C(=C(O)/C=C/c2ccc(O)c(OC)c2)C(C(=O)OC)=C1C`: the Activity in [9] is 8.87%. Turning to `COc1cc(/C=C/C(=O)OCCCCCN(C)Cc2cccc(OC(=O)N(C)C)c2)ccc1O`, the IC50 on Acetylcholinesterase worked out at 19.7 nM; on Cholinesterase it was 590 nM. With `COc1cc(/C=C/C(=O)NN=C2CCN(Cc3ccccc3)CC2)ccc1O`, the Activity amounted to 53.4% in assay [5], 53.4% in assay [6] and 34% in the assay on SH-SY5Y.
